From PMC12118597 (Science Advances, 2025)
Read-outs that look alike come from different tables or passages of the source.

Biological target: SARS-CoV-2 NSP3 macrodomain (Mac1) (Severe acute respiratory syndrome coronavirus 2, UniProt P0DTD1)
Type: binding
Details: for PanDDA run, overall: Modeling comment / PanDDA run, overall: Hit / PanDDA run, overall: Modeled: P43 crystal form; for 1-BDC: PanDDA background density correction factor; for Total number of conformations: ligand conformations modeled in the crystal structure; for 2*(1-BDC) (%): occupancy estimate from PanDDA; for Refined ligand occupancy (%): refined crystallographic occupancy
[1] = TRUE = crystal structure with ligand obtained
[2] = site of ligand in X-ray crystal structure
[3] = ligand-bound crystal structure obtained (TRUE)
[4] = site occupied in X-ray crystal structure
[5] = crystal soak 10 mM, TFA/DMSO background map

Structure (SMILES)	PanDDA run, overall: Modeling comment (crystal soak 10 mM)	Occupancy difference (refined_occupancy - 2*(1-BDC))	1-BDC	X-ray crystal structure [1]	PanDDA run, overall: Hit (crystal soak 10 mM)	PanDDA run, overall: Modeled (crystal soak 10 mM)	PanDDA run, DMSO background map: 1-BDC (crystal soak 10 mM)	PanDDA run, DMSO background map: Hit (crystal soak 10 mM)	Total number of conformations	2*(1-BDC) (%)	Refined ligand occupancy (%)	Binding site [2]	X-ray crystal structure [3]	Binding site [4]	PanDDA run, TFA/DMSO background map: 1-BDC [5]	PanDDA run, TFA/DMSO background map: Hit [5]
O=C(O)C(F)(F)F.OCC(CC1CCOCC1)Nc1ncnc2[nH]ccc12 (stereo not drawn) [AVI-3676]	TFA only	–	–	–	–	–	–	–	–	–	–	–	–	–	–	–
OCC(Nc1ncnc2[nH]ccc12)C1CCOC1 (stereo not drawn) [AVI-3679]	–	0	0.16	TRUE	TRUE	TRUE	0.16	TRUE	1	32	32	Adenosine	–	–	–	–
O=C(O)C(F)(F)F.OCC12CC(CN1c1ncnc3[nH]ccc13)C2 [AVI-3681]	Distal site, weak density, not modeled	-14	0.22	–	TRUE	TRUE	0.22	TRUE	1	44	30	–	TRUE	Adenosine	–	–
Cc1ccc(CC(CO)Nc2ncnc3[nH]ccc23)cc1 (stereo not drawn) [AVI-3683]	–	20	0.15	TRUE	TRUE	TRUE	0.15	TRUE	2	30	50	Adenosine	–	–	–	–
Cc1ccc(CC(CO)Nc2ncnc3[nH]ccc23)cc1C (stereo not drawn) [AVI-3684]	–	20	0.15	TRUE	TRUE	TRUE	0.15	TRUE	2	30	50	Adenosine	–	–	–	–
OCC1CCCN1c1ncnc2[nH]ccc12 (stereo not drawn) [AVI-3685]	–	20	0.25	–	TRUE	TRUE	0.25	TRUE	1	50	70	–	TRUE	Adenosine	–	–
OCC(Cc1ccc(I)cc1)Nc1ncnc2[nH]ccc12 (stereo not drawn) [AVI-3686]	–	0	0.2	TRUE	TRUE	TRUE	0.2	TRUE	2	40	40	Adenosine	–	–	–	–
O=C(O)C(F)(F)F.OCC(Nc1ncnc2[nH]ccc12)C(O)C1CCCCC1 (stereo not drawn) [AVI-3687]	Weak density, not modeled	–	–	–	TRUE	–	0.15	TRUE	–	–	–	–	–	–	0.08	TRUE
O=C(O)C(F)(F)F.OCC1(Nc2ncnc3[nH]ccc23)CC1 [AVI-3688]	–	20	0.2	TRUE	TRUE	TRUE	0.2	TRUE	1	40	60	Adenosine	–	–	–	–
OCC(CC1CCCCC1)Nc1ncnc2[nH]ccc12 (stereo not drawn) [AVI-3690]	Weak density for alternative ligand conformation	0	0.12	TRUE	TRUE	TRUE	0.12	TRUE	1	24	24	Adenosine	–	–	–	–
OCC(CC1CCCC1)Nc1ncnc2[nH]ccc12 (stereo not drawn) [AVI-3691]	–	-16	0.18	TRUE	TRUE	TRUE	0.18	TRUE	1	36	20	Adenosine	–	–	–	–
